Laboratory results published in PubChem BioAssay AID330 (DTP/NCI, 2004).
Where “and” joins values, the source holds several entries; their conditions need not be identical. Equal values may be shown once. Toxic doses and inconclusive results are not listed.

Test system: P388 leukemia ip, CD2F1 mice, survival T/C
Test: NCI In Vivo Anticancer Drug Screen. Data for tumor model P388 Leukemia (intraperitoneal) in CD2F1 (CDF1) mice
Conditions: endpoint: median survival time, higher = longer survival
In short: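 Mice carrying the transplanted tumor received test compound or vehicle. Survival was recorded in each group, and the value is the treated-group measurement divided by that of the vehicle-treated control group.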

[1] = dose: 6.25 mg/kg/injection, schedule: Q01DX009 (ip), vehicle: saline
[2] = dose: 12.5 mg/kg/injection, schedule: Q01DX009 (ip), vehicle: saline
[3] = dose: 25.0 mg/kg/injection, schedule: Q01DX009 (ip), vehicle: saline
[4] = dose: 12.5 mg/kg/injection, schedule: Q01DX009 (ip), vehicle: saline with Tween-80
[5] = dose: 25.0 mg/kg/injection, schedule: Q01DX009 (ip), vehicle: saline with Tween-80
[6] = dose: 50.0 mg/kg/injection, schedule: Q01DX009 (ip), vehicle: saline with Tween-80
[7] = dose: 200.0 mg/kg/injection, schedule: Q01DX009 (ip), vehicle: saline with Tween-80
[8] = dose: 100.0 mg/kg/injection, schedule: Q01DX009 (ip), vehicle: saline with Tween-80
[9] = dose: 50.0 mg/kg/injection, schedule: Q01DX009 (ip), vehicle: saline
[10] = dose: 100.0 mg/kg/injection, schedule: Q01DX009 (ip), vehicle: saline
[11] = dose: 50.0 mg/kg/injection, schedule: Q01DX009 (ip), vehicle: Klucel (hydroxypropylcellulose) (HPC)
[12] = dose: 100.0 mg/kg/injection, schedule: Q01DX009 (ip), vehicle: Klucel (hydroxypropylcellulose) (HPC)
[13] = dose: 200.0 mg/kg/injection, schedule: Q01DX009 (ip), vehicle: Klucel (hydroxypropylcellulose) (HPC)
[14] = dose: 12.5 mg/kg/injection, schedule: Q01DX005 (ip), vehicle: saline
[15] = dose: 25.0 mg/kg/injection, schedule: Q01DX005 (ip), vehicle: saline
[16] = dose: 50.0 mg/kg/injection, schedule: Q01DX005 (ip), vehicle: saline
[17] = dose: 100.0 mg/kg/injection, schedule: Q01DX005 (ip), vehicle: saline
[18] = dose: 100.0 mg/kg/injection, schedule: Q01DX001 (ip), vehicle: saline with Tween-80
[19] = dose: 200.0 mg/kg/injection, schedule: Q01DX001 (ip), vehicle: saline with Tween-80
[20] = dose: 200.0 mg/kg/injection, schedule: Q01DX009 (ip), vehicle: saline
[21] = dose: 50.0 mg/kg/injection, schedule: Q01DX005 (ip), vehicle: saline with Tween-80
[22] = dose: 100.0 mg/kg/injection, schedule: Q01DX005 (ip), vehicle: saline with Tween-80
[23] = dose: 200.0 mg/kg/injection, schedule: Q01DX005 (ip), vehicle: saline with Tween-80

For `Clc1ccc2c(ccc3ccc(Cl)nc32)n1`, the T/C (dose: 25.0 mg/kg/injection, schedule: Q04DX002 (ip), vehicle: saline with Tween-80) was 100 % of control, the T/C (dose: 50.0 mg/kg/injection, schedule: Q04DX002 (ip), vehicle: saline with Tween-80) was 98 % of control and the T/C (dose: 100.0 mg/kg/injection, schedule: Q04DX002 (ip), vehicle: saline with Tween-80) was 89 % of control.

For `CCN(CC)CCCNC(c1ccc(OC)c(OC)c1)C(Cl)(Cl)Cl` (configuration not stated), the T/C (dose: 60.0 mg/kg/injection, schedule: Q01DX005 (ip), vehicle: saline) was 94 % of control and the T/C (dose: 120.0 mg/kg/injection, schedule: Q01DX005 (ip), vehicle: saline) was 101 % of control.

`COc1ccc2c(c1)OC1CC2NC(N)=N1` (configuration not stated) was tested, and the T/C [1] was 100 % of control, the T/C [2] was 107 % of control and the T/C [3] was 109 % of control.

For `Cc1nc(C(=O)NO)c2ccccc2n1`, the T/C [4] was 102 % of control, the T/C [5] was 102 % of control and the T/C [6] was 98 % of control and 97 % of control. The T/C [7] was 103 % of control.

In the case of `COC(=O)/C(C#N)=C(/SC)N(C)C`, the T/C [4] was 104 % of control, the T/C [5] was 104 % of control and the T/C [6] was 102 % of control and 109 % of control. For the same molecule, the T/C [8] was 103 % of control.

With `CCOC(=O)N1c2ccccc2C=CC1OCC` (configuration not stated) the T/C (dose: 6.0 mg/kg/injection, schedule: Q04DX003 (ip), vehicle: other) was 95 % of control, the T/C (dose: 12.0 mg/kg/injection, schedule: Q04DX003 (ip), vehicle: other) was 100 % of control and the T/C (dose: 25.0 mg/kg/injection, schedule: Q04DX003 (ip), vehicle: other) was 100 % of control.

`C=C(C)C(=O)N1c2ccc(OC)cc2CC1C(=O)OCC` (configuration not stated) was tested, and the T/C (dose: 60.0 mg/kg/injection, schedule: Q01DX005 (ip), vehicle: saline + Tween-80 + alcohol) was 102 % of control, the T/C (dose: 120.0 mg/kg/injection, schedule: Q01DX005 (ip), vehicle: saline + Tween-80 + alcohol) was 100 % of control and the T/C (dose: 240.0 mg/kg/injection, schedule: Q01DX005 (ip), vehicle: saline + Tween-80 + alcohol) was 97 % of control.

In the case of `COc1ccccc1-n1cc[n+](C)c1/C=N/O`, the T/C [4] was 86 % of control, the T/C [5] was 90 % of control and the T/C [9] was 99 % of control.

In the case of `O=c1c(C(=Nc2ccccc2)c2ccccc2)c[nH]n1-c1ccccc1`, the T/C (dose: 60.0 mg/kg/injection, schedule: Q01DX005 (ip), vehicle: saline with Tween-80) was 105 % of control, the T/C (dose: 120.0 mg/kg/injection, schedule: Q01DX005 (ip), vehicle: saline with Tween-80) was 105 % of control and the T/C (dose: 240.0 mg/kg/injection, schedule: Q01DX005 (ip), vehicle: saline with Tween-80) was 105 % of control.

`ClC1=CCCCC1` was tested, and the T/C [3] was 100 % of control, the T/C [9] was 100 % of control and the T/C [10] was 110 % of control.

For `CCOC(=O)/N=[N+](\[O-])c1ccc(Cl)cc1`, the T/C (dose: 100.0 mg/kg/injection, schedule: Q01DX001 (ip), vehicle: Klucel (hydroxypropylcellulose) (HPC)) was 100 % of control.

`CP1(=S)CCC2=C1CCc1cc(O)ccc12` (configuration not stated) was tested, and the T/C [11] was 104 % of control, the T/C [12] was 104 % of control and the T/C [13] was 101 % of control.

For `CC(=O)NN=Nc1ccc(C)cc1`, the T/C (dose: 50.0 mg/kg/injection, schedule: Q01DX005 (ip), vehicle: Klucel (hydroxypropylcellulose) (HPC)) was 105 % of control and the T/C (dose: 100.0 mg/kg/injection, schedule: Q01DX005 (ip), vehicle: Klucel (hydroxypropylcellulose) (HPC)) was 102 % of control.

In the case of `C=C/C=C\CN(C)Cc1ccccc1`, the T/C [14] was 99 % of control, the T/C [15] was 105 % of control and the T/C [16] was 106 % of control and 108 % of control. For the same molecule, the T/C [17] was 101 % of control.

For `ClCC(OCc1ccccc1)OCc1ccccc1`, the T/C (dose: 12.5 mg/kg/injection, schedule: Q01DX009 (ip), vehicle: other) was 114 % of control, the T/C (dose: 25.0 mg/kg/injection, schedule: Q01DX009 (ip), vehicle: other) was 100 % of control and the T/C (dose: 50.0 mg/kg/injection, schedule: Q01DX009 (ip), vehicle: other) was 100 % of control. For the same molecule, the T/C (dose: 100.0 mg/kg/injection, schedule: Q01DX009 (ip), vehicle: other) was 111 % of control and the T/C (dose: 200.0 mg/kg/injection, schedule: Q01DX009 (ip), vehicle: other) was 119 % of control.

With `Cn1c(=O)c2c(ncn2CCCl)n(C)c1=O` the T/C (dose: 12.5 mg/kg/injection, schedule: Q01DX005 (ip), vehicle: distilled water + Tween-80) was 100 % of control, the T/C (dose: 25.0 mg/kg/injection, schedule: Q01DX005 (ip), vehicle: distilled water + Tween-80) was 105 % of control and the T/C (dose: 50.0 mg/kg/injection, schedule: Q01DX005 (ip), vehicle: distilled water + Tween-80) was 105 % of control. The T/C (dose: 100.0 mg/kg/injection, schedule: Q01DX005 (ip), vehicle: distilled water + Tween-80) was 102 % of control.

`CCC(C)NCC/C(=C\[Si](C)(C)C)c1ccccc1` (configuration not stated) was tested, and the T/C [18] was 100 % of control and the T/C [19] was 106 % of control.

`CCCCC(NC(=O)CC)C(=O)O` (configuration not stated) was tested, and the T/C [1] was 107 % of control, the T/C [2] was 94 % of control and the T/C [3] was 98 % of control. The T/C [20] was 100 % of control.

With `CC(C)(O)C#C[Si](C)(C)C` the T/C [21] was 98 % of control, the T/C [22] was 103 % of control and the T/C [23] was 94 % of control.

With `CC[C@@]1(O)C[C@H]2CN(CCc3c([nH]c4ccccc34)[C@@](C(=O)OC)(c3cc4c(cc3OC)N[C@H]3[C@@](O)(C(=O)OC)[C@H](OC(C)=O)[C@]5(CC)C=CCN6CC[C@]43[C@@H]65)C2)C1` the T/C (dose: 16.0 mg/kg/injection, schedule: Q01DX001 (ip), vehicle: water) was 153 % of control and 164 % of control.

In the case of `COC(=N)C(Cl)(Cl)Cl`, the T/C [9] was 97 % of control, the T/C [10] was 100 % of control and the T/C [20] was 95 % of control.

In the case of `CC(=O)OC1CCN(C)CC1CCl` (configuration not stated), the T/C [2] was 110 % of control, the T/C [3] was 105 % of control and the T/C [9] was 105 % of control and 114 % of control.

`O=C1Nc2c(ccc3c2NCCC3)C2CCCC12` (configuration not stated) was tested, and the T/C [18] was 94 % of control, the T/C [19] was 94 % of control and the T/C (dose: 400.0 mg/kg/injection, schedule: Q01DX001 (ip), vehicle: saline with Tween-80) was 90 % of control.

For `Cc1ccc(NC(=O)Oc2ccccc2F)c([N+](=O)[O-])c1`, the T/C [6] was 115 % of control, the T/C [8] was 115 % of control and the T/C [7] was 115 % of control.

For `S=c1[nH]c(=S)c2[nH]cnc2[nH]1`, the T/C [21] was 102 % of control, the T/C [22] was 100 % of control and the T/C [23] was 100 % of control.

With `Cc1ccc(S(=O)(=O)N/N=C2/C=CC3(CC=CCC3)CC2)cc1` (configuration not stated) the T/C [11] was 109 % of control, the T/C [12] was 100 % of control and the T/C [13] was 100 % of control.

For `CCN=c1cc2oc3cc(NCC)c(C)cc3c(-c3ccccc3C(=O)OCC)c-2cc1C`, the T/C (dose: 0.4 mg/kg/injection, schedule: Q01DX005 (ip), vehicle: saline with Tween-80) was 110 % of control, the T/C (dose: 0.8 mg/kg/injection, schedule: Q01DX005 (ip), vehicle: saline with Tween-80) was 116 % of control and the T/C (dose: 1.6 mg/kg/injection, schedule: Q01DX005 (ip), vehicle: saline with Tween-80) was 119 % of control.

For `Clc1ccccc1/C=C/C=C1c2ccccc2-c2ccccc21`, the T/C [4] was 90 % of control, the T/C [5] was 104 % of control and the T/C [6] was 113 % of control. The T/C (dose: 100.0 mg/kg/injection, schedule: Q04DX003 (ip), vehicle: saline with Tween-80) was 95 % of control, the T/C (dose: 200.0 mg/kg/injection, schedule: Q04DX003 (ip), vehicle: saline with Tween-80) was 109 % of control and the T/C (dose: 400.0 mg/kg/injection, schedule: Q04DX003 (ip), vehicle: saline with Tween-80) was 109 % of control.

`Nc1nc(=O)n(C2CC(O)C(O)C(CO)O2)cc1F` (configuration not stated) was tested, and the T/C [8] was 109 % of control, the T/C [7] was 97 % of control and the T/C (dose: 400.0 mg/kg/injection, schedule: Q01DX009 (ip), vehicle: saline with Tween-80) was 93 % of control.

With `CS/C(=N\N=C(/C)c1ccccn1)N/N=C(\SC)N(C)c1ccccc1` the T/C [21] was 108 % of control, the T/C [22] was 104 % of control and the T/C [23] was 110 % of control.

With `O=C1NC(=O)C2(CCC(O)C2)c2cc[n+]([O-])cc21` (configuration not stated) the T/C [14] was 96 % of control, the T/C [15] was 105 % of control and the T/C [16] was 105 % of control. The T/C [17] was 100 % of control.
